In PubChem BioAssay AID256 (DTP/NCI, 2004):
Values joined by “and” are separate entries in the source; they are usually repeats but may differ in a detail not shown here. Equal entries are not always repeated. Inconclusive results and toxic doses are left out.

Tested on: CD2F1 mice, L1210 leukemia ip, survival T/C
Experiment: NCI In Vivo Anticancer Drug Screen. Data for tumor model L1210 Leukemia (intraperitoneal) in CD2F1 (CDF1) mice
Conditions: higher = longer survival
How it was run: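 Transplantable tumor in mice; compound-treated vs vehicle-treated groups. Read-out = treated/control ratio of the measured endpoint.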

Question: Which results are given for `CN(C)CCN1C(=O)c2cccc3cc(N)cc(c23)C1=O`?
Answer: T/C (endpoint: mean survival time, dose: 1.0 mg/kg/injection, schedule: Q01DX009 (ip), vehicle: saline with Tween-80): 92 % of control and 104 % of control; T/C (endpoint: mean survival time, dose: 2.0 mg/kg/injection, schedule: Q01DX009 (ip), vehicle: saline with Tween-80): 101 % of control and 102 % of control; T/C (endpoint: mean survival time, dose: 4.0 mg/kg/injection, schedule: Q01DX009 (ip), vehicle: saline with Tween-80): 107 % of control and 108 % of control; T/C (endpoint: mean survival time, dose: 16.0 mg/kg/injection, schedule: Q01DX009 (ip), vehicle: saline with Tween-80): 175 % of control and 197 % of control; T/C (endpoint: mean survival time, dose: 32.0 mg/kg/injection, schedule: Q01DX009 (ip), vehicle: saline with Tween-80): 89 % of control and 96 % of control; T/C (endpoint: median survival time, dose: 1.0 mg/kg/injection, schedule: Q01DX009 (ip), vehicle: acid diluted with saline): 99 % of control; T/C (endpoint: median survival time, dose: 1.2 mg/kg/injection, schedule: Q03HX024 (ip), vehicle: water): 113 % of control; T/C (endpoint: median survival time, dose: 1.8 mg/kg/injection, schedule: Q03HX024 (ip), vehicle: water): 117 % of control; T/C (endpoint: median survival time, dose: 2.0 mg/kg/injection, schedule: Q01DX009 (ip), vehicle: acid diluted with saline): 97 % of control and 107 % of control; T/C (endpoint: median survival time, dose: 2.0 mg/kg/injection, schedule: Q01DX009 (ip), vehicle: saline with Tween-80): 105 % of control; T/C (endpoint: median survival time, dose: 2.7 mg/kg/injection, schedule: Q03HX024 (ip), vehicle: water): 115 % of control; T/C (endpoint: median survival time, dose: 2.9 mg/kg/injection, schedule: Q01DX005 (iv), vehicle: water): 108 % of control; T/C (endpoint: median survival time, dose: 3.2 mg/kg/injection, schedule: Q01DX009 (ip), vehicle: saline): 118 % of control; T/C (endpoint: median survival time, dose: 3.2 mg/kg/injection, schedule: Q01DX009 (ip), vehicle: water): 105 % of control; T/C (endpoint: median survival time, dose: 3.65 mg/kg/injection, schedule: Q03HX008 (ip), vehicle: water): 118 % of control; T/C (endpoint: median survival time, dose: 4.0 mg/kg/injection, schedule: Q01DX009 (ip), vehicle: acid diluted with saline): 113 % of control and 99 % of control; T/C (endpoint: median survival time, dose: 4.0 mg/kg/injection, schedule: Q01DX009 (ip), vehicle: saline with Tween-80): 116 % of control; T/C (endpoint: median survival time, dose: 4.35 mg/kg/injection, schedule: Q01DX005 (iv), vehicle: water): 105 % of control; T/C (endpoint: median survival time, dose: 4.7 mg/kg/injection, schedule: Q01DX009 (ip), vehicle: water): 124 % of control; T/C (endpoint: median survival time, dose: 5.0 mg/kg/injection, schedule: Q01DX009 (ip), vehicle: acid diluted with saline): 113 % of control; T/C (endpoint: median survival time, dose: 5.44 mg/kg/injection, schedule: Q03HX008 (ip), vehicle: water): 120 % of control; T/C (endpoint: median survival time, dose: 5.76 mg/kg/injection, schedule: Q01DX005 (ip), vehicle: water): 117 % of control; T/C (endpoint: median survival time, dose: 6.03 mg/kg/injection, schedule: Q03HX024 (ip), vehicle: water): 154 % of control; T/C (endpoint: median survival time, dose: 6.5 mg/kg/injection, schedule: Q01DX005 (iv), vehicle: saline with Tween-80): 105 % of control; T/C (endpoint: median survival time, dose: 6.5 mg/kg/injection, schedule: Q01DX005 (iv), vehicle: water): 113 % of control; T/C (endpoint: median survival time, dose: 7.0 mg/kg/injection, schedule: Q01DX009 (ip), vehicle: acid diluted with saline): 114 % of control; T/C (endpoint: median survival time, dose: 7.1 mg/kg/injection, schedule: Q01DX009 (ip), vehicle: saline with Tween-80): 123 % of control; T/C (endpoint: median survival time, dose: 8.0 mg/kg/injection, schedule: Q01DX009 (ip), vehicle: acid diluted with saline): 118 % of control; T/C (endpoint: median survival time, dose: 8.46 mg/kg/injection, schedule: Q01DX005 (ip), vehicle: saline with Tween-80): 114 % of control; T/C (endpoint: median survival time, dose: 8.46 mg/kg/injection, schedule: Q01DX005 (ip), vehicle: water): 120 % of control; T/C (endpoint: median survival time, dose: 9.0 mg/kg/injection, schedule: Q03HX024 (ip), vehicle: water): 209 % of control; T/C (endpoint: median survival time, dose: 9.7 mg/kg/injection, schedule: Q01DX005 (iv), vehicle: saline with Tween-80): 114 % of control; T/C (endpoint: median survival time, dose: 9.7 mg/kg/injection, schedule: Q01DX005 (iv), vehicle: water): 120 % of control; T/C (endpoint: median survival time, dose: 9.7 mg/kg/injection, schedule: Q04DX003 (ip), vehicle: water): 120 % of control; T/C (endpoint: median survival time, dose: 10.0 mg/kg/injection, schedule: Q01DX009 (ip), vehicle: acid diluted with saline): 117 % of control; T/C (endpoint: median survival time, dose: 10.7 mg/kg/injection, schedule: Q01DX009 (ip), vehicle: saline): 165 % of control; T/C (endpoint: median survival time, dose: 11.0 mg/kg/injection, schedule: Q01DX009 (ip), vehicle: saline with Tween-80): 150 % of control and 167 % of control; T/C (endpoint: median survival time, dose: 12.1 mg/kg/injection, schedule: Q03HX008 (ip), vehicle: water): 174 % of control; T/C (endpoint: median survival time, dose: 13.4 mg/kg/injection, schedule: Q03HX024 (ip), vehicle: water): 103 % of control; T/C (endpoint: median survival time, dose: 14.5 mg/kg/injection, schedule: Q04DX003 (ip), vehicle: water): 120 % of control; T/C (endpoint: median survival time, dose: 14.6 mg/kg/injection, schedule: Q01DX001 (iv), vehicle: water): 112 % of control; T/C (endpoint: median survival time, dose: 16.0 mg/kg/injection, schedule: Q01DX009 (ip), vehicle: acid diluted with saline): 175 % of control and 217 % of control and 112 % of control; T/C (endpoint: median survival time, dose: 16.0 mg/kg/injection, schedule: Q01DX009 (ip), vehicle: saline): 206 % of control; T/C (endpoint: median survival time, dose: 16.0 mg/kg/injection, schedule: Q01DX009 (ip), vehicle: water): 187 % of control; T/C (endpoint: median survival time, dose: 19.3 mg/kg/injection, schedule: Q01DX005 (ip), vehicle: saline with Tween-80): 158 % of control; T/C (endpoint: median survival time, dose: 19.3 mg/kg/injection, schedule: Q01DX005 (ip), vehicle: water): 183 % of control; T/C (endpoint: median survival time, dose: 21.6 mg/kg/injection, schedule: Q01DX005 (iv), vehicle: saline with Tween-80): 162 % of control; T/C (endpoint: median survival time, dose: 21.6 mg/kg/injection, schedule: Q01DX005 (iv), vehicle: water): 182 % of control; T/C (endpoint: median survival time, dose: 21.8 mg/kg/injection, schedule: Q01DX001 (iv), vehicle: water): 113 % of control; T/C (endpoint: median survival time, dose: 24.0 mg/kg/injection, schedule: Q01DX009 (ip), vehicle: saline with Tween-80): 158 % of control and 163 % of control; T/C (endpoint: median survival time, dose: 24.0 mg/kg/injection, schedule: Q01DX009 (ip), vehicle: saline): 118 % of control; T/C (endpoint: median survival time, dose: 24.0 mg/kg/injection, schedule: Q01DX009 (ip), vehicle: water): 117 % of control; T/C (endpoint: median survival time, dose: 28.8 mg/kg/injection, schedule: Q01DX001 (ip), vehicle: water): 120 % of control; T/C (endpoint: median survival time, dose: 28.8 mg/kg/injection, schedule: Q01DX005 (ip), vehicle: saline with Tween-80): 187 % of control; T/C (endpoint: median survival time, dose: 28.8 mg/kg/injection, schedule: Q01DX005 (ip), vehicle: water): 195 % of control; T/C (endpoint: median survival time, dose: 28.9 mg/kg/injection, schedule: Q01DX009 (oral), vehicle: water): 174 % of control; T/C (endpoint: median survival time, dose: 32.0 mg/kg/injection, schedule: Q01DX009 (ip), vehicle: acid diluted with saline): 95 % of control; T/C (endpoint: median survival time, dose: 32.0 mg/kg/injection, schedule: Q01DX009 (ip), vehicle: saline with Tween-80): 90 % of control and 108 % of control; T/C (endpoint: median survival time, dose: 32.2 mg/kg/injection, schedule: Q01DX005 (iv), vehicle: saline with Tween-80): 96 % of control; T/C (endpoint: median survival time, dose: 32.3 mg/kg/injection, schedule: Q04DX003 (ip), vehicle: water): 196 % of control; T/C (endpoint: median survival time, dose: 36.0 mg/kg/injection, schedule: Q01DX009 (ip), vehicle: saline): 93 % of control; T/C (endpoint: median survival time, dose: 43.1 mg/kg/injection, schedule: Q01DX009 (oral), vehicle: water): 108 % of control; T/C (endpoint: median survival time, dose: 43.2 mg/kg/injection, schedule: Q01DX005 (ip), vehicle: saline with Tween-80): 95 % of control; T/C (endpoint: median survival time, dose: 48.3 mg/kg/injection, schedule: Q04DX003 (ip), vehicle: water): 244 % of control; T/C (endpoint: median survival time, dose: 72.0 mg/kg/injection, schedule: Q04DX003 (ip), vehicle: water): 108 % of control

Question: Which T/C (endpoint: median survival time, dose: 26.5 mg/kg/injection, schedule: Q01DX005 (ip), vehicle: Klucel (hydroxypropylcellulose) (HPC)) does the source give for `CC1OC(n2ccc(=O)[nH]c2=O)C(O)C(O)C1=O` (stereo unspecified) here?
Answer: 102 % of control

Question: And the T/C (endpoint: median survival time, dose: 53.0 mg/kg/injection, schedule: Q01DX005 (ip), vehicle: Klucel (hydroxypropylcellulose) (HPC))?
Answer: 100 % of control

Question: What about the T/C (endpoint: median survival time, dose: 106.0 mg/kg/injection, schedule: Q01DX005 (ip), vehicle: Klucel (hydroxypropylcellulose) (HPC)) of the same compound?
Answer: 107 % of control

Question: What about the T/C (endpoint: median survival time, dose: 212.0 mg/kg/injection, schedule: Q01DX005 (ip), vehicle: Klucel (hydroxypropylcellulose) (HPC)) of the same compound?
Answer: 101 % of control

Question: Which T/C (endpoint: mean survival time, dose: 300.0 mg/kg/injection, schedule: Q01DX001 (ip), vehicle: saline) does the source give for `Nc1nc(SSc2nc(N)nc3c2ncn3C2OC(CO)CC2O)c2ncn(C3OC(CO)CC3O)c2n1` (stereo unspecified) here?
Answer: 118 % of control

Question: Which results are given for `O=C(CC(O)(C(F)(F)F)C(F)(F)F)c1ccc(F)cc1`?
Answer: T/C (endpoint: mean survival time, dose: 100.0 mg/kg/injection, schedule: Q01DX009 (ip), vehicle: other): 98 % of control; T/C (endpoint: mean survival time, dose: 200.0 mg/kg/injection, schedule: Q01DX009 (ip), vehicle: other): 98 % of control; T/C (endpoint: mean survival time, dose: 400.0 mg/kg/injection, schedule: Q01DX009 (ip), vehicle: other): 98 % of control

Question: `CCc1ccc2ccccc2c1[N+](=O)[O-]` was tested. Which T/C (endpoint: mean survival time, dose: 100.0 mg/kg/injection, schedule: Q01DX001 (ip), vehicle: saline with Tween-80) did it give?
Answer: 105 % of control

Question: What about the T/C (endpoint: mean survival time, dose: 200.0 mg/kg/injection, schedule: Q01DX001 (ip), vehicle: saline with Tween-80) of the same compound?
Answer: 94 % of control

Question: What about the T/C (endpoint: mean survival time, dose: 400.0 mg/kg/injection, schedule: Q01DX001 (ip), vehicle: saline with Tween-80) of the same compound?
Answer: 98 % of control
